This is an account of results in patent US20240082125A1, “USE OF A SHORT CHAIN FATTY ACID AS ANTIDANDRUFF AGENT” (NANYANG TECHNOLOGICAL UNIVERSITY, priority 2020, published 2024).

Molecules are shown by their SMILES. Values joined by “and” are separate entries in the source; they are usually repeats but may differ in a detail not shown here. Equal values may be shown once.

In assay [1] the test system is M. restricta ATCC MYA-4611. Put plainly: M. restricta growth assay, total cell numbers by SYTO9 fluorescence. To be noted: for growth of Malassezia restricta: 30 mM, MD medium pH 6, FIG. 1; for M. restricta (log10 total cell counts): 50 mM, after 72 hours, SYTO9, starting density 1×10^7 cells/ml, replicates #1-#3. The assay is classed as cell-based, Malassezia restricta. The procedure: (§1) M. restricta ATCC MYA-4611, S. epidermidis ATCC 12228, and C. acnes ATCC 6919 were purchased from ATCC. M. restricta was routinely cultured in modified Dixon (MD) medium (pH 6), composed of 36 g of Malt extract (Sigma 70167), 20 g of Dessicated Oxbile (Sigma 70168), 6 g of Bacto™ Peptone (BD 211677), 1% (v/v) Tween 40 (Sigma P1504), 0.2% (v/v) Oleic Acid (Fluka 75096), and 0.2% (v/v) Glycerol (Promega H5433) in 1 liter of dH2O. C. acnes and S. epidermidis were cultured in modified brain heart infusion (MBHI) medium (pH 7), containing 37 g of BHI base (Accumedia 7116B), 0.4% (v/v) of Tween-40 (Sigma P1504), 0.2% (v/v) of Oleic acid (Fluka 75096), and 0.2% (v/v) of Glycerol (Promega H5433) in 1 liter of dH2O. M. restricta and S. epidermidis were routinely grown under aerobic conditions, shaken at 200 rpm, and C. acnes was grown under anaerobic conditions. All organisms were grown at 33° C. Wherever required, media was supplemented with: sodium acetate (CH3COOH, Sigma Ref. 32319), sodium propionate ([…], Sigma Ref. P1880), sodium butyrate (CH3(CH2)2COOH, Sigma Ref. 303410), valeric acid (CH3(CH2)3COOH, Fluka Ref. 75054). For valeric acid, the pH in modified cell media was neutralized with NaOH (Sodium hydroxide, Sigma 283060).
M. restricta cells from 1 ml of the culture were harvested by centrifugation at 10,000×g for 5 minutes at room temperature. Cells were washed once, pelleted, and re-suspended in 0.9% NaCl solution. Equal volumes of the above cell suspension and SYTO 9 working stock (3 ul SYTO 9 component of the Live/Dead BacLight bacterial viability kit, ThermoFisher Scientific, L7012, diluted in 1 ml of 0.9% NaCl solution) were mixed well, incubated in dark for 10 minutes, and fluorescent intensity unit was measured in a Tecan microplate reader with excitation/emission wavelengths of 485/530 nm. A standard for correlation of fluorescence units and concentration was prepared using a fluorimeter and hemocytometer under a light microscope. This standard curve was used to calculate the total cell numbers.
(§2) M. restricta cells stored as glycerol stocks (30% glycerol in MD medium) were revived by plating on MD agar plates and incubated for 2-3 days at 33° C. A pre-culture was made from the lawn of cells grown on the agar plate. Cells from % of the plate was scrapped off, homogenized after suspending in 70 ml of MD medium in a 250 ml baffled erlenmeyer flask and incubated for 24 hours at 33° C. at 200 rpm. For experiments, 10^7 cell/ml was inoculated in fresh MD medium with or without the short chain fatty acids. Growth was monitored by measuring the cell density with SYTO 9 for up to 24 hours or 96 hours. C. acnes and S. epidermidis were inoculated into MBHI medium at starting cell density of OD600 0.05 and 0.25, respectively. Bacterial growth was measured by plating the serially diluted cultures on Brain Heart Infusion agar plates at different time points and colonies were counted after 72 hours for C. acnes and 24 hours for S. epidermidis.
(§3) M. restricta ATCC MYA-4611, S. epidermidis ATCC 12228 and C. acnes ATCC 6919 were purchased from ATCC. M. restricta were routinely cultured in Modified Dixon (MD) medium (pH 6), composed of 36 g of Malt extract (Sigma 70167), 20 g of Dessicated Oxbile (Sigma 70168), 6 g of Bacto™ Peptone (BD 211677), 1% (v/v) Tween 40 (Sigma P1504), 0.2% (v/v) Oleic Acid (Fluka 75096), and 0.2% (v/v) Glycerol (Promega H5433) in 1 liter of dH2O. C. acnes and S. epidermidis were cultured in modified brain heart infusion (MBHI) medium (pH 7), containing 37 g of BHI base (Accumedia 7116B), 0.4% (v/v) of Tween-40 (Sigma P1504), 0.2% (v/v) of Oleic acid (Fluka 75096), and 0.2% (v/v) of Glycerol (Promega H5433) in 1 liter of dH2O. M. restricta and S. epidermidis were routinely grown under aerobic conditions, shaken at 200 rpm, and C. acnes was grown under anaerobic conditions. All organisms were grown at 33° C.

Assay [2] deals with C. acnes ATCC 6919. Put plainly: C. acnes growth assay, colony forming units. The assay is classed as cell-based, Cutibacterium acnes. Conditions: for growth of C. acnes: 30 mM, MBHI medium pH 7, anaerobic, FIG. 2; for C. acnes (log10 CFUs/ml): 50 mM, after 72 hours, replicates #1-#3. The procedure:
as §1, §2
(§4) Bacterial growth was quantified by plating the serially diluted cultures on Brain Heart Infusion agar plates at different time points and colonies were counted after 72 hours for C. acnes and 24 hours for Staphylococcus sp.
(§5) M. restricta ATCC MYA-4611, S. epidermidis ATCC 12228 and C. acnes ATCC 6919 were purchased from ATCC. M. restricta were routinely cultured in Modified Dixon (MD) medium (pH 6), composed of 36 g of Malt extract (Sigma 70167), 20 g of Dessicated Oxbile (Sigma 70168), 6 g of Bacto™ Peptone (BD 211677), 1% (v/v) Tween 40 (Sigma P1504), 0.2% (v/v) Oleic Acid (Fluka 75096), and 0.2% (v/v) Glycerol (Promega H5433) in 1 liter of dH2O. C. acnes and S. epidermidis were cultured in modified brain heart infusion (MBHI) medium (pH 7), containing 37 g of BHI base (Accumedia 7116B), 0.4% (v/v) of Tween-40 (Sigma P1504), 0.2% (v/v) of Oleic acid (Fluka 75096), and 0.2% (v/v) of Glycerol (Promega H5433) in 1 liter of dH2O. M. restricta and S. epidermidis were routinely grown under aerobic conditions, shaken at 200 rpm, and C. acnes was grown under anaerobic conditions. All organisms were grown at 33° C. Wherever required, media was supplemented with 50 mM of: sodium propionate ([…], Sigma Ref. P1880), sodium butyrate (CH3(CH2)2COOH, Sigma Ref. 303410), valeric acid (CH3(CH2)3COOH, Fluka Ref. 75054). For valeric acid, the pH in modified cell media was neutralized with NaOH (Sodium hydroxide, Sigma 283060).
(§6) M. restricta cells stored as glycerol stocks (30% glycerol in MD medium) were revived by plating on MD agar plates and incubated for 2-3 days at 33° C. A pre-culture was made from the lawn of cells grown on the agar plate.

For assay [3], the system named is S. epidermidis ATCC 12228. Nature of the assay: S. epidermidis growth assay, colony forming units. The assay is classed as cell-based, Staphylococcus epidermidis. Conditions: for growth of S. epidermidis: 30 mM, MBHI medium pH 7, aerobic, FIG. 3; for S. epidermidis (log10 CFUs/ml): 50 mM, after 24 hours, replicates #1-#3. The protocol: as §1, §2, §4, §5, §6
Assay [4] deals with M. restricta ATCC MYA-4611. Nature of the assay: M. restricta cell viability by ATP estimation (BacTiterGlo). The assay is classed as cell-based, Malassezia restricta. Conditions: 50 mM, ATP in lysate of 24 hours grown cells, replicates #1-#3. The procedure:
as §3, with “M. restricta and S. epidermidis were routinely grown under aerobic conditions, shaken at 200 rpm, and C. acnes was grown under anaerobic conditions. All organisms were grown at 33° C.” left out
M. restricta cells stored as glycerol stocks (30% glycerol in MD medium) were revived by plating on MD agar plates and incubated for 2-3 days at 33° C. […] Growth was monitored by measuring the cell density with SYTO 9 or by estimating the ATP concentration (see below) for up to 24 hours or 96 hours. […] Bacterial growth was measured by plating the serially diluted cultures on Brain Heart Infusion agar plates at different time points and colonies were counted after 72 hours for C. acnes and 24 hours for S. epidermidis.
Cellular ATP was measured using the BacTiterGlo Microbial cell viability (Promega) kit following manufacturers protocol. […]

Consider `CCCC(=O)[O-].[Na+]` [NaB, sodium butyrate], for which, in assay [1], the “growth of Malassezia restricta” value is recorded as “completely inhibit”; the “M. restricta (log10 total cell counts)” value is 6.94 log10 total cell counts and 6.88 log10 total cell counts (2×). Besides, in assay [2], the “growth of C. acnes” value was “do not affect”; the “C. acnes (log10 CFUs/ml)” value was 8.26 log10 CFUs/ml and 8.10 log10 CFUs/ml and 8.34 log10 CFUs/ml. In assay [3], the “growth of S. epidermidis” value is “do not affect”; the “S. epidermidis (log10 CFUs/ml)” value is 9.15 log10 CFUs/ml and 8.87 log10 CFUs/ml and 8.90 log10 CFUs/ml.

Turning to `CCCCC(=O)[O-].[Na+]` [NaV, sodium valerate], in assay [1], the “growth of Malassezia restricta” value is “completely inhibit”; the “M. restricta (log10 total cell counts)” value is 6.86 log10 total cell counts and 6.92 log10 total cell counts and 6.93 log10 total cell counts. Further, in assay [2], the “growth of C. acnes” value is given as “do not affect”; the “C. acnes (log10 CFUs/ml)” value is 8.90 log10 CFUs/ml and 8.03 log10 CFUs/ml and 8.00 log10 CFUs/ml. Besides, in assay [3], the “growth of S. epidermidis” value is on record as “do not affect”; the “S. epidermidis (log10 CFUs/ml)” value is 8.90 log10 CFUs/ml and 9.29 log10 CFUs/ml and 9.08 log10 CFUs/ml.

Regarding `CCCCCCCC(=O)O` [Cpy, caprylic acid], the “M. restricta (log10 total cell counts)” value in assay [1] is 6.98 log10 total cell counts and 6.91 log10 total cell counts and 6.84 log10 total cell counts. Also, the “C. acnes (log10 CFUs/ml)” value in assay [2] was found to be 0.00 log10 CFUs/ml. The “S. epidermidis (log10 CFUs/ml)” value in assay [3] is 3.34 log10 CFUs/ml and 3.03 log10 CFUs/ml and 3.00 log10 CFUs/ml.

`CCCCCCCC(=O)OCC(O)CO` (stereo not shown) [GM_Cpy, glyceryl mono caprylate]: in assay [2], the “C. acnes (log10 CFUs/ml)” value is reported as 0.00 log10 CFUs/ml. In addition, the “S. epidermidis (log10 CFUs/ml)” value in assay [3] was 0.00 log10 CFUs/ml. Also, the “M. restricta (Relative luminescence units)” value in assay [4] was 16700 Relative luminescence units and −1470 Relative luminescence units and −2030 Relative luminescence units.

With `CCC(=O)[O-].CCC(=O)[O-].[Zn+2]` [Zn_Pro, zinc propionate], in assay [2], the “C. acnes (log10 CFUs/ml)” value was determined as 0.00 log10 CFUs/ml. Besides, in assay [3], the “S. epidermidis (log10 CFUs/ml)” value is 5.00 log10 CFUs/ml and 5.05 log10 CFUs/ml and 0.00 log10 CFUs/ml. The “M. restricta (Relative luminescence units)” value in assay [4] is 12500 Relative luminescence units and 11900 Relative luminescence units and 10300 Relative luminescence units.

For the compound `CCCCCC(=O)OCC` [EH_Cpo, ethyl caproate], the “M. restricta (log10 total cell counts)” value in assay [1] is 6.80 log10 total cell counts and 6.69 log10 total cell counts and 6.74 log10 total cell counts. In assay [2], the “C. acnes (log10 CFUs/ml)” value was 9.94 log10 CFUs/ml and 8.47 log10 CFUs/ml and 8.00 log10 CFUs/ml. The “S. epidermidis (log10 CFUs/ml)” value in assay [3] is 5.55 log10 CFUs/ml and 5.54 log10 CFUs/ml and 5.66 log10 CFUs/ml.

`CCCCCC(=O)O` [Cpo, caproic acid]: the “M. restricta (log10 total cell counts)” value in assay [1] is 6.93 log10 total cell counts and 6.95 log10 total cell counts and 6.87 log10 total cell counts. Further, the “C. acnes (log10 CFUs/ml)” value in assay [2] is 8.29 log10 CFUs/ml and 8.26 log10 CFUs/ml and 8.41 log10 CFUs/ml. Further, the “S. epidermidis (log10 CFUs/ml)” value in assay [3] was 7.64 log10 CFUs/ml and 7.67 log10 CFUs/ml and 7.57 log10 CFUs/ml.

`CC(=O)[O-].[Na+]` [acetate, sodium acetate]: in assay [1], the “growth of Malassezia restricta” value is “No effect”.
